Source: patent US10822309B2, “Crystalline form of Eluxadoline” (priority 2017, dated 2020)

Assay: PXRD studies of capped and uncapped samples after storage in stability chambers (polymorphic stability)
Format: physicochemical
Procedure: Eluxadoline Form APO-I can be characterized by a PXRD diffractogram comprising, among other peaks, characteristic peaks, expressed in degrees 2θ (±0.2°), at 6.4°, 6.9° and 11.4°. Preferably, the PXRD diffractogram further comprises at least three peaks, expressed in degrees 2θ (±0.2°), selected from the group consisting of 8.7°, 9.9°, 12.7°, 14.8°, 15.8°, 17.5°, 18.9°, 19.8° and 23.8°. More preferably, the PXRD diffractogram further comprises peaks, expressed in degrees 2θ (±0.2°), at 8.7°, 9.9°, 12.7°, 14.8°, 15.8°, 17.5°, 18.9°, 19.8° and 23.8°. PXRD studies of capped and uncapped samples of Eluxadoline Form APO-I have shown that this crystal form is stable following storage in stability chambers maintained at 27° C./60% RH and 40° C./75% RH for at least 10 days.
PXRD diffractograms were recorded on a Bruker D8 Discover powder X-ray diffractometer (Bruker-AXS, Karlsruhe, Germany). The generator was a Micro-focus X-ray source (IMSTube: Cu tube with 1.54184 A) with a voltage of 50 kV and current of 1.00 mA, using a divergence slit of 0.3 mm and collimator of 0.3 mm. For each sample, one frame was collected using a still scan with a Pilatus 3R-100 kA detector at the distance of 154.72 mm from the sample. Raw data were evaluated using the program EVA (Bruker-AXS, Karlsruhe, Germany).

## COc1ccc(CN(C(=O)[C@@H](N)Cc2c(C)cc(C(N)=O)cc2C)[C@@H](C)c2nc(-c3ccccc3)c[nH]2)cc1C(=O)O [Eluxadoline Form APO-I, 5-({[(2S)-2-amino-3-(4-carbamoyl-2,6-dimethylphenyl)propionyl]-[(1S)-1-(4-phenyl-1H-imidazol-2-yl)ethyl]amino}-methyl)-2-methoxybenzoic acid]
Stability chamber 27° C./60% RH
  crystal form stable following storage (PXRD): at least 10 days
Stability chamber 40° C./75% RH
  crystal form stable / resists polymorph conversion following storage (PXRD): at least 10 days
